Reference: the OPERA property sets (Mansouri et al. 2018)

conditions: not given

SMILES | melting point [°C] | boiling point [°C] | log10 Koc (L/kg) | log10 vapour pressure (mmHg) | log10 Henry constant (atm·m³/mol) | ready biodegradability | log10 biodegradation half-life (days) | log10 Koa
O[C@H](CCl)[C@H](O)CCl | 126 | – | – | – | – | – | – | –
OCc1c(F)c(F)c(F)c(F)c1F | 37.5 | 181 | – | – | – | – | – | –
CC(C)COCCOCCO | – | 217 | – | – | – | – | – | –
COc1c(O)c(Cl)c(Cl)c(Cl)c1Cl | – | – | 2.85 | -4.08 | – | – | – | –
Fc1c(F)c(F)c(Cl)c(F)c1F | – | 118 | – | 1.25 | – | – | – | –
O=C(c1ccccc1)c1ccc([N+](=O)[O-])cc1 | 138 | – | – | – | – | – | – | –
Cc1cccc([N+](=O)[O-])c1 | 15.5 | 232 | – | -0.687 | -5.03 | not readily biodegradable | – | –
O=CCCCl | – | 130 | – | – | – | – | – | –
Cc1[nH]c2ccccc2c1C | 106 | 285 | – | – | – | – | – | –
O=C(O)c1cc([N+](=O)[O-])cc([N+](=O)[O-])c1 | 205 | – | 1.53 | – | – | not readily biodegradable | – | –
O=C(O)c1cc(F)c(F)c(F)c1F | 86 | – | – | – | – | – | – | –
CCON=C(CC)C1=C(O)CC(c2c(C)cc(C)cc2C)CC1=O (stereo not drawn) | 106 | – | – | -8.56 | – | – | – | –
NC(=O)c1ccncc1 | 156 | – | – | – | – | – | – | –
CC1CC(CC2CCC(N)C(C)C2)CCC1N (stereo not drawn) | – | – | – | – | – | not readily biodegradable | – | –
O=C(O)c1cc(O)c(O)c(=O)c(O)c1 | 317 | – | – | – | – | – | – | –
CC(O)[C@H]1CC[C@H]2[C@@H]3CC[C@@H]4C[C@@H](O)CC[C@]4(C)[C@H]3CC[C@]12C (stereo partly drawn) | 244 | – | – | – | – | – | – | –
COc1cccc(OC)c1C | 40 | – | – | – | – | – | – | –
CC(C)OC(=O)C(C(=O)OC(C)C)=C1SCCS1 | 54 | – | – | – | – | – | – | –
CCCCCC(CC)CC | – | 166 | – | – | – | – | – | –
COc1cccc(C(=O)NN(C(=O)c2cc(C)cc(C)c2)C(C)(C)C)c1C | 204 | – | – | – | – | – | – | –
O=[N+]([O-])CCl | – | 122 | – | – | – | – | – | –
C=C(C)C(OC(C)=O)OC(C)=O | – | 191 | – | – | – | – | – | –
CCCCCCCCC(=O)OCCCCCCC | -15.5 | – | – | – | – | – | – | –
O=Cc1ccc(C=O)cc1 | 117 | 246 | – | – | – | readily biodegradable | – | –
O=[N+]([O-])c1ccc(NS(=O)(=O)c2ccc(Cl)c(C(F)(F)F)c2)c(Cl)c1 | 170 | – | – | – | – | – | – | –
CC(=O)c1ccc(I)cc1 | 86 | – | – | – | – | – | – | –

SMILES | melting point [°C] | boiling point [°C] | log10 Koc (L/kg) | log10 vapour pressure (mmHg) | log10 Henry constant (atm·m³/mol) | ready biodegradability | log10 biodegradation half-life (days) | log10 Koa
C[C@]12CC[C@H]3[C@@H](CCC4=CC(=O)CC[C@@H]43)[C@@H]1CC[C@@H]2O | 118 | – | – | – | – | – | – | –
FC(F)=C(Cl)C(F)(F)F | -130 | 6.8 | – | – | – | – | – | –
C=CCC1(C(C)CC)C(=O)NC(=O)NC1=O (stereo not drawn) | 109 | – | – | – | – | – | – | –
CC(C)(C)c1cc(Cn2c(=O)n(Cc3cc(C(C)(C)C)c(O)c(C(C)(C)C)c3)c(=O)n(Cc3cc(C(C)(C)C)c(O)c(C(C)(C)C)c3)c2=O)cc(C(C)(C)C)c1O | – | – | – | – | – | not readily biodegradable | – | –
CCOC1Oc2ccc(OS(C)(=O)=O)cc2C1(C)C (stereo not drawn) | 71 | – | 2.53 | -5.31 | – | – | – | –
COc1cc(Cc2cnc(N)nc2N)cc(OC)c1OC | 201 | – | – | – | – | – | – | –
NC[C@H](O)[C@@H](O)[C@@H](O)[C@H](O)CO | 127 | – | – | – | – | – | – | –
COc1cc(Cl)cc(Cl)c1 | 41 | – | – | – | – | – | – | –
C1CC2C3CCC(C3)C2C1 (stereo not drawn) | – | – | – | – | – | – | 3 | –
C[C@@H]1CC[C@@H](C)S1 | -89 | 142 | – | – | – | – | – | –
O=C(c1ccccc1)c1ccccn1 | 42 | 317 | – | – | – | readily biodegradable | – | –
C1=CCC(c2ccccc2)CC1 (stereo not drawn) | – | – | – | – | – | readily biodegradable | – | –
CCCOC(=O)c1ccccc1 | -51.6 | 211 | – | -0.867 | – | – | – | –
O=C(O)COc1ccc(Cl)cc1CO | 141 | – | – | -6.18 | – | – | – | –
Oc1ccccc1-c1ccccc1 | 59 | 286 | – | -2.7 | – | readily biodegradable | – | –
c1ccc(OC2CCCCC2)cc1 | – | 261 | – | – | – | – | – | –
Cc1ccc(CC=O)cc1 | 40 | 222 | – | – | – | – | – | –
O=C1OC(=O)C2=C1CCCC2 | 74 | – | – | – | – | – | – | –
Brc1cccc(-c2ccccc2)c1 | – | 300 | – | – | – | – | – | –
CN(C)C(CSS(=O)(=O)c1ccccc1)CSS(=O)(=O)c1ccccc1 | 83.5 | – | – | – | – | – | – | –
CCCCCCCC(=O)OCCCCCC | -30.6 | 277 | – | – | – | – | – | –
NS(=O)(=O)c1cc(-c2nnn[nH]2)c(NCc2cccs2)cc1Cl | 220 | – | – | – | – | – | – | –
CC(Cl)=C(Cl)Cl | – | 118 | – | – | – | – | – | –
Clc1ccc(-c2cc(Cl)c(Cl)cc2Cl)cc1Cl | – | – | – | -5.05 | – | – | – | 9.82
CC(C)(C)c1cccc(O)c1 | 42.3 | 240 | – | -1.7 | – | not readily biodegradable | – | –
Cc1ccc2cc(C)ccc2c1 | 112 | 262 | – | -2.37 | – | – | – | –

SMILES | melting point [°C] | boiling point [°C] | log10 Koc (L/kg) | log10 vapour pressure (mmHg) | log10 Henry constant (atm·m³/mol) | ready biodegradability | log10 biodegradation half-life (days) | log10 Koa
CN(C)CCN(Cc1cccs1)c1ccccn1 | – | – | 2.87 | – | – | – | – | –
CCC=CCCO | – | 156 | – | – | – | – | – | –
OCN(CO)c1nc(N(CO)CO)nc(N(CO)CO)n1 | 137 | – | – | – | – | – | – | –
CCS(=O)(=O)c1nnc(N(C)C(=O)NC)s1 | 156 | – | – | – | – | – | – | –
CC(C)C1(Cc2ccco2)C(=O)NC(=O)NC1=O | 169 | – | – | – | – | – | – | –
O=[N+]([O-])c1ccc(Br)c(Cl)c1 | – | – | 2.6 | – | – | – | – | –
CNC(C)C | – | 50.4 | – | – | – | – | – | –
CC(=O)NC12CC3CC(CC(C3)C1)C2 | 148 | – | – | – | – | – | – | –
FC(Cl)C(F)(F)C(F)(F)Cl (stereo not drawn) | – | 56.1 | – | 2.46 | – | – | – | –
CN(C)C1CSSC1 | 177 | – | – | – | – | – | – | –
Nc1nnc(-c2ccc([N+](=O)[O-])o2)s1 | 280 | – | – | – | – | – | – | –
Brc1ccsc1Br | -17.5 | 218 | – | – | – | – | – | –
O=C(Oc1ccccc1)n1c(C(F)(F)F)nc2cc(Cl)c(Cl)cc21 | 103 | – | – | – | – | – | – | –
N#Cc1ccc2ccccc2n1 | 95 | – | – | – | – | – | – | –
CCOC(=O)Cn1c(=O)sc2cccc(Cl)c21 | 79.2 | – | – | -5.56 | – | – | – | –
c1ccc(-c2ccncc2)nc1 | 61.5 | 281 | – | – | – | – | – | –
CC1(C)[C@H]2CC=C(CO)[C@@H]1C2 | – | 222 | – | – | – | – | – | –
C=CC(Cl)CCl (stereo not drawn) | -61 | 116 | – | 1.34 | – | not readily biodegradable | – | –
Oc1ccc(/C=C/c2cc(O)cc(O)c2)cc1 | 254 | – | – | – | – | – | – | –
CCCCCO | -78.9 | 138 | 0.7 | 0.342 | -4.89 | readily biodegradable | – | 4.69
CC(C)c1ccc(C(C)C)cc1 | -17 | 210 | – | -0.609 | – | not readily biodegradable | – | –
CN(C)c1ccc(CO)cc1 | 69 | – | – | – | – | – | – | –
OCC1CO1 (stereo not drawn) | – | – | – | – | – | readily biodegradable | – | –
CCCCCCCC | -56.8 | 126 | – | 1.15 | – | readily biodegradable | 0.954 | 3.35
CCCCC/C=C\C/C=C\C/C=C\C/C=C\CCCC(=O)O | -49.5 | – | – | – | – | – | – | –
Cc1ccc(F)cc1 | -56 | 117 | – | 1.32 | – | – | – | –

SMILES | melting point [°C] | boiling point [°C] | log10 Koc (L/kg) | log10 vapour pressure (mmHg) | log10 Henry constant (atm·m³/mol) | ready biodegradability | log10 biodegradation half-life (days) | log10 Koa
CC(=O)CCc1ccco1 | – | 203 | – | – | – | – | – | –
CC[C@]12CCCN3CCc4c(n(c5ccccc45)[C@@](O)(C(=O)OC)C1)[C@@H]32 | 232 | – | – | – | – | – | – | –
COc1cc(O)c(C(=O)c2ccccc2)cc1S(=O)(=O)O | 145 | – | – | – | – | – | – | –
O=[N+]([O-])c1ccc2ncccc2c1 | 154 | – | – | – | – | – | – | –
CC(C(=O)O)c1ccc(C(=O)c2cccs2)cc1 (stereo not drawn) | 124 | – | – | – | – | – | – | –
CC(=S)Nc1ccccc1 | 77.5 | – | – | – | – | – | – | –
Oc1ccc2ccc(O)cc2c1 | 193 | – | – | – | – | – | – | –
Cc1c(C(C)C)c(=O)n(-c2ccccc2)n1C | 103 | – | – | – | – | – | – | –
O=[N+]([O-])c1ccc(Nc2ccccc2)cc1 | 135 | – | – | – | – | – | – | –
C=C(C)C(=O)Cl | -60 | 96 | – | – | – | – | – | –
CC#C[C@]1(O)CC[C@H]2[C@@H]3C[C@H](C)C4=CC(=O)CC[C@]4(C)[C@H]3CC[C@@]21C | 102 | – | – | – | – | – | – | –
CC[Si](Cl)(CC)CC | – | 144 | – | 0.83 | – | – | – | –
O=C(Nc1ccccc1)NC1CC1 | – | – | 1.74 | – | – | – | – | –
Cc1cc(CC(C)CC(C)(C)C)n(O)c(=O)c1 (stereo not drawn) | 108 | – | – | – | – | – | – | –
CC(O)Cn1c(=O)c2c(ncn2C)n(C)c1=O (stereo not drawn) | 141 | – | – | – | – | – | – | –
NCc1ccccn1 | – | 203 | – | – | – | – | – | –
CN(C)CCN(C)CCN(C)C | – | – | – | – | – | not readily biodegradable | – | –
CC(C)(C)c1cc(C(C)(C)C)cc(C(C)(C)C)c1 | – | – | – | – | – | not readily biodegradable | – | –
CC(=O)c1cccc(Br)c1 | 7.5 | – | – | – | – | – | – | –
O=C(Cl)Cc1ccccc1 | – | – | – | -0.702 | – | – | – | –
C=CCC(C)(C)C | -137 | 72.5 | – | – | – | – | – | –
BrCCCCOc1ccccc1 | 41 | – | – | – | – | – | – | –
CCCCCCCCCCCC1=C(O)C(=O)C=C(O)C1=O | 142 | – | – | – | – | – | – | –

same assay, conditions: fish

SMILES | log10 BCF | log10 biotransformation half-life (days)
COc1c(O)c(Cl)c(Cl)c(Cl)c1Cl | 3.08 | –
Cc1cccc([N+](=O)[O-])c1 | 1.08 | -0.79
CC(C)OC(=O)C(C(=O)OC(C)C)=C1SCCS1 | 1.57 | –
Clc1ccc(-c2cc(Cl)c(Cl)cc2Cl)cc1Cl | – | 2.19
CN(C)C1CSSC1 | 1.72 | –
C=CC(Cl)CCl (stereo not drawn) | 1.11 | -1.28
CC(C)c1ccc(C(C)C)cc1 | 3.24 | 0.6
Clc1cc(Cl)c2cc(Cl)ccc2c1 | 4.43 | –
CC(C)(C)c1cc(C(C)(C)C)cc(C(C)(C)C)c1 | 4.36 | 2.7
